Measurements as given in patent publication US20060110769A1, “Regulation of novel human prolyl 4-hydroxylases” (Bayer Aktiengesellschaft, priority 2001, published 2006).

Test system: human prolyl 4-hydroxylase
Experiment: Expression of human prolyl 4-hydroxylase by Western blotting in oligonucleotide-treated HCT116 cells
Type: cell-based
Conditions: HCT116, 10 μM once per day for seven days
Procedure: The cell line used for testing is the human colon cancer cell line HCT116. Cells are cultured in RPMI-1640 with 10-15% fetal calf serum at a concentration of 10,000 cells per milliliter in a volume of 0.5 ml and kept at 37° C. in a 95% air/5% CO2 atmosphere.
Phosphorothioate oligoribonucleotides are synthesized on an Applied Biosystems Model 380B DNA synthesizer using phosphoroamidite chemistry. A sequence of 24 bases complementary to the nucleotides at position 1 to 24 of SEQ ID NO:1 or SEQ ID NO:3 is used as the test oligonucleotide. As a control, another (random) sequence is used: 5′-TCAACTGACTAGATGTACATGGAC-3′ (SEQ ID NO:11). Following assembly and deprotection, oligonucleotides are ethanol-precipitated twice, dried, and suspended in phosphate buffered saline at the desired concentration. Purity of the oligonucleotides is tested by capillary gel electrophoresis and ion exchange HPLC. The purified oligonucleotides are added to the culture medium at a concentration of 10 μM once per day for seven days.
This effect is not observed with the control oligonucleotide. After 3 to 7 days, the number of cells in the cultures is counted using an automatic cell counter. The number of cells in cultures treated with the test oligonucleotide (expressed as 100%) is compared with the number of cells in cultures treated with the control oligonucleotide.

For “5′-TCAACTGACTAGATGTACATGGAC-3′ (TCAACTGACTAGATGTACATGGAC; listed as DNA, chemistry not given here) [control oligonucleotide]”, the “expression of human prolyl 4-hydroxylase as determined by Western blotting” value was “not observed”.
